Molecular target: T1, IifC (Acinetobacter baumannii, UniProt A0ABX6CFV1)
T1 construct: gene styA; full length, 412 aa; pQE-80L (BamHI/PstI); expressed in E. coli CY15000 (tnaA mutant); purified by Q-Sepharose anion exchange
T1 sequence (A0ABX6CFV1 1-412): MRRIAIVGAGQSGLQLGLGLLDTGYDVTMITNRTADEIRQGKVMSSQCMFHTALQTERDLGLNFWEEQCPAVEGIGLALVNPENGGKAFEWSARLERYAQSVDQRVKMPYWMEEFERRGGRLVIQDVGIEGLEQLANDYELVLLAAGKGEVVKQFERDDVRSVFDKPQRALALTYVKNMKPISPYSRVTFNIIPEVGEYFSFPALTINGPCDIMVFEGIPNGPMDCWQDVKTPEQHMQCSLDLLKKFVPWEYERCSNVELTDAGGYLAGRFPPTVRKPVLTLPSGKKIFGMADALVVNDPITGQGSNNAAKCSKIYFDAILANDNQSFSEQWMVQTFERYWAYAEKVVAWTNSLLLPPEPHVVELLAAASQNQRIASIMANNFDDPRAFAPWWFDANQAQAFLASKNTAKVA
Assay: FAD content of purified protein
Type: binding
Details: as purified from E. coli; non-covalently bound

## Cc1cc2nc3c(=O)[nH]c(=O)nc-3n(C[C@H](O)[C@H](O)[C@H](O)COP(=O)(O)OP(=O)(O)OC[C@H]3O[C@@H](n4cnc5c(N)ncnc54)[C@H](O)[C@@H]3O)c2cc1C [flavin adenine dinucleotide]
  mol FAD per mol protein: 0.48 mol/mol

From paper PMC4577076, “Detoxification of Indole by an Indole-Induced Flavoprotein Oxygenase from Acinetobacter baumannii” (PLoS ONE, 2015)
